Two compounds from patent US20010049372A1, “Antiviral nucleoside analogues” (BioChem Pharma Inc., priority 1998, published 2001) can be followed below.

In one data set the test system is HSF. Description: Cellular toxicity by [3H]-thymidine uptake. The format is cell-based. The conditions noted are these: Table 14; 72 hrs; read-out: CC50 (μM) [^3H]TTP incorporation in: HSF. In short, it runs like this: (§1)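 Cells plated at 1-2×10^3/well, pre-incubated 24 h, then exposed 72 h to 10-fold serial compound dilutions (10^−4 M to 10^−10 M). [3H]-thymidine was added for the final 18 h and DNA incorporation counted after hypotonic lysis and harvesting. CC50 derived from cpm relative to untreated controls.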

The next data set deals with Molt-4. Description: Cellular toxicity by [3H]-thymidine uptake. Particulars: Table 14; 72 hrs; read-out: CC50 (μM) [^3H]TTP incorporation in: Molt4. It is filed as cell-based. In short, it runs like this:
as §1

Each structure is given as a SMILES string. A value given as a limit tells only on which side of the number the result lay.

Consider `Cc1cn([C@H]2C[C@H](N=[N+]=[N-])[C@@H](CO)O2)c(=O)[nH]c1=O` [Zidovudine, zidovudine], for which the CC50 with HSF is more than 10 µM. In the case of `Nc1ccn([C@@H]2CS[C@H](CO)O2)c(=O)n1` [Lamivudine, lamivudine], in the data set with Molt-4, the CC50 is more than 100 µM.
